{"source": "patent US7862642B2", "about": "“Extended-release urea-based granular fertilizer” (Georgia-Pacific Chemicals LLC, priority 2006, dated 2011)", "system": "Kentucky bluegrass (Poa pratenis L.) turf stand", "details": "visual scale 1-9 (1=no burn or discoloration, 6=moderate, 9=severe), 3 replications; for Mean Phytotoxicity Score DAT 3: 3 days after treatment; for Mean Phytotoxicity Score DAT 5: 5 days after treatment; for Mean Phytotoxicity Score DAT 13: 13 days after treatment; for Mean Phytotoxicity Score DAT 20: 20 days after treatment", "note": "Where two headings read alike, the source gives them in different places.", "excerpt": "SGN is defined as the median particle size (in millimeters), i.e., 50% of the particles (by weight) have a particle size above and below this number. The respective fertilizers were applied to a Kentucky bluegrass (Poa pratenis L.) turf stand at the Hancock Turfgrass Research Center on the campus of Michigan State University.\nThe experimental design was a randomized complete block design with 3 replications. Fertilizer treatments were applied at rates of 1, 2, and 6 lbs. Nitrogen/1000 ft^2. Treatments were applied with a hand shaker container over a 12 ft^2 area. Irrigation (0.25″ water) was not applied until 3 days after treatment application. Visual ratings were conducted on a scale 1-9 with 1=no burn or discoloration, 6=moderate burn or discoloration, and 9=severe burn or discoloration."}
{"smiles": "NC(N)=O", "note": "[UREA, urea]", "values": [{"measurement": "Mean Phytotoxicity Score DAT 3", "setting": "1 lb N/1000 ft^2", "value": 1}, {"measurement": "Mean Phytotoxicity Score DAT 5", "setting": "1 lb N/1000 ft^2", "value": 1}, {"measurement": "Mean Phytotoxicity Score DAT 13", "setting": "1 lb N/1000 ft^2", "value": 1}, {"measurement": "Mean Phytotoxicity Score DAT 20", "setting": "1 lb N/1000 ft^2", "value": 1}, {"measurement": "Mean Phytotoxicity Score DAT 3", "setting": "2 lb N/1000 ft^2", "value": 2.3}, {"measurement": "Mean Phytotoxicity Score DAT 5", "setting": "2 lb N/1000 ft^2", "value": 3.7}, {"measurement": "Mean Phytotoxicity Score DAT 13", "setting": "2 lb N/1000 ft^2", "value": 2.3}, {"measurement": "Mean Phytotoxicity Score DAT 20", "setting": "2 lb N/1000 ft^2", "value": 1}, {"measurement": "Mean Phytotoxicity Score DAT 3", "setting": "6 lb N/1000 ft^2", "value": 7.7}, {"measurement": "Mean Phytotoxicity Score DAT 5", "setting": "6 lb N/1000 ft^2", "value": 8.2}, {"measurement": "Mean Phytotoxicity Score DAT 13", "setting": "6 lb N/1000 ft^2", "value": 7.7}, {"measurement": "Mean Phytotoxicity Score DAT 20", "setting": "6 lb N/1000 ft^2", "value": 4.0}]}
